# Experimental data from ChEMBL document CHEMBL3621090, “Discovery of a novel Kv7 channel opener as a treatment for epilepsy” (Bioorg Med Chem Lett, 2015).
# Columns and labels:
# [1] = target: T1, Voltage-gated potassium channel, KQT; KCNQ2(Kv7.2)/KCNQ3(Kv7.3) (Homo sapiens) (UniProt O43526+O43525); assay: (§1) Activation of human Kv7.2/7.3 expressed in CHOK1 cells; assay type: cell-based; settings: CHO-K1
# [2] = target: Voltage-gated potassium channel, KQT; KCNQ2(Kv7.2)/KCNQ3(Kv7.3) (Homo sapiens, UniProt O43525+O43526); assay: as §1; assay type: cell-based, CHO-K1
# [3] = target: T1, Voltage-gated potassium channel, KQT; KCNQ2(Kv7.2)/KCNQ3(Kv7.3) (Homo sapiens); assay: Activation of human Kv7.2/7.3 expressed in CHOK1 cells assessed as increase in current amplitude relative to control; assay type: cell-based; settings: CHO-K1
# [4] = target: Voltage-gated potassium channel, IKs; KCNQ1(Kv7.1)/KCNE1(MinK) (Homo sapiens, UniProt P15382+P51787); assay: Activation of human Kv7.1/KCNE1 expressed in CHOK1 cells; assay type: cell-based, CHO-K1
# [5] = target: Potassium voltage-gated channel subfamily KQT member 2/member 3 (Rattus norvegicus, UniProt O88943+O88944); assay: Activation of rat Kv7.2/7.3 expressed in CHOK1 cells; assay type: cell-based, CHO-K1
# [6] = target: Voltage-gated potassium channel KCNQ3/KCNQ5 (Homo sapiens, UniProt O43525+Q9NR82); assay: Activation of human Kv7.3/7.5 expressed in CHOK1 cells assessed as increase in current amplitude relative to control; assay type: cell-based; settings: CHO-K1
# [7] = target: Voltage-gated potassium channel, IKs; KCNQ1(Kv7.1)/KCNE1(MinK) (Homo sapiens, UniProt P51787+P15382); assay: Activation of human Kv7.1/KCNE1 expressed in CHOK1 cells assessed as increase in current amplitude relative to control; assay type: cell-based; settings: cho-k1
# [8] = target: Potassium voltage-gated channel subfamily KQT member 2/member 3 (Rattus norvegicus) (UniProt O88943+O88944); assay: Activation of rat Kv7.2/7.3 expressed in CHOK1 cells assessed as increase in current amplitude relative to control; assay type: cell-based; settings: CHO-K1
# [9] = target: T2, Potassium voltage-gated channel subfamily KQT member 4 (Rattus norvegicus) (UniProt Q9JK96); assay: Activation of rat Kv7.4 expressed in CHOK1 cells assessed as increase in current amplitude relative to control; assay type: cell-based; settings: CHO-K1
# T2 sequence (whole entry): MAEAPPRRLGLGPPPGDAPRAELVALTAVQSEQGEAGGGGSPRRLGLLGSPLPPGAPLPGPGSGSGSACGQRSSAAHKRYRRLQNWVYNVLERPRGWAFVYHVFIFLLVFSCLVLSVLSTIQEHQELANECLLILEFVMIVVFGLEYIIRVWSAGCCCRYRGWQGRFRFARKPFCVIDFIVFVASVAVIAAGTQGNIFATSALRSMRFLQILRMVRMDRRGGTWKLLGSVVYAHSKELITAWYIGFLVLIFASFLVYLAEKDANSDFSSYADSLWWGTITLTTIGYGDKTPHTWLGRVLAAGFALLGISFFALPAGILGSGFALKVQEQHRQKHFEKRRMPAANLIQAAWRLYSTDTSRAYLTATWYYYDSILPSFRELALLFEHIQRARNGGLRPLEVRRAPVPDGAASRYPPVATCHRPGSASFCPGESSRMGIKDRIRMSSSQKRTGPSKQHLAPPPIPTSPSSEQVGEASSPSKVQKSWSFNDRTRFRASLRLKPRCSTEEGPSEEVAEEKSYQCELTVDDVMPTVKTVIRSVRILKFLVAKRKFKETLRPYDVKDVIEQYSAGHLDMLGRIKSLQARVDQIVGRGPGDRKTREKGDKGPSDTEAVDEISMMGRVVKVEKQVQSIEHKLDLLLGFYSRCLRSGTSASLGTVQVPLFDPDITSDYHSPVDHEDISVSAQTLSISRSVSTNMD
# MDCK = assay: Efflux ratio of permeability from basolateral to apical over apical to basolateral side in MDCK cells transfected with MDR1; assay type: ADME, cell-based, Canis lupus familiaris; settings: dog
# Plasma [10] = assay: Unbound plasma concentration in Sprague-Dawley rat at 3 mg/kg, sc administered at 30 mins by LC-MS/MS analysis; assay type: ADME, organism-based; settings: in vivo, 0.5 h
# Brain [11] = assay: Fraction unbound in Sprague-Dawley rat brain at 3 mg/kg, sc administered at 30 mins by LC-MS/MS analysis; assay type: ADME, organism-based; settings: in vivo, 0.5 h
# Brain [12] = assay: Fraction unbound in Sprague-Dawley rat brain at 10 mg/kg, sc administered at 30 mins by LC-MS/MS analysis; assay type: ADME, organism-based; settings: in vivo, 0.5 h
# Brain [13] = assay: Fraction unbound in Sprague-Dawley rat brain at 30 mg/kg, sc administered at 30 mins by LC-MS/MS analysis; assay type: ADME, organism-based; settings: in vivo, 0.5 h
# [14] = Ratio of free drug level in plasma to brain in Sprague-Dawley rat at 1 mg/kg, sc administration at 30 mins; assay type: ADME, organism-based; settings: in vivo, 0.5 h
# Plasma [15] = assay: Unbound plasma concentration in Sprague-Dawley rat at 1 mg/kg, po administered at 60 mins by LC-MS/MS analysis; assay type: ADME, organism-based; settings: in vivo, 1 h
# Plasma [16] = assay: Unbound plasma concentration in Sprague-Dawley rat at 3 mg/kg, po administered at 60 mins by LC-MS/MS analysis; assay type: ADME, organism-based; settings: in vivo, 1 h
# Plasma [17] = assay: Unbound plasma concentration in Sprague-Dawley rat at 10 mg/kg, po administered at 60 mins by LC-MS/MS analysis; assay type: ADME, organism-based; settings: in vivo, 1 h
# Plasma [18] = assay: Unbound plasma concentration in Sprague-Dawley rat at 30 mg/kg, po administered at 60 mins by LC-MS/MS analysis; assay type: ADME, organism-based; settings: in vivo, 1 h
# Brain [19] = assay: Fraction unbound in Sprague-Dawley rat brain at 3 mg/kg, po administered at 60 mins by LC-MS/MS analysis; assay type: ADME, organism-based; settings: in vivo, 1 h
# Brain [20] = assay: Fraction unbound in Sprague-Dawley rat brain at 10 mg/kg, po administered at 60 mins by LC-MS/MS analysis; assay type: ADME, organism-based; settings: in vivo, 1 h
# [21] = Ratio of free drug level in plasma to brain in Sprague-Dawley rat at 1 mg/kg, po administration at 60 mins; assay type: ADME, organism-based; settings: in vivo, 1 h
# [22] = Ratio of free drug level in plasma to brain in Sprague-Dawley rat at 3 mg/kg, po administration at 60 mins; assay type: ADME, organism-based; settings: in vivo, 1 h
# [23] = Ratio of free drug level in plasma to brain in Sprague-Dawley rat at 30 mg/kg, po administration at 60 mins; assay type: ADME, organism-based; settings: in vivo, 1 h
# Rattus norvegicus [24] = assay: Anticonvulsant activity in Sprague-Dawley rat assessed as protection against maximal electroshock-induced convulsion at 3 mg/kg, sc administered 30 mins prior to application of shock via corneal electrodes relative to control; assay type: functional
# Rattus norvegicus [25] = assay: Anticonvulsant activity in Sprague-Dawley rat assessed as protection against maximal electroshock-induced convulsion at 30 mg/kg, sc administered 30 mins prior to application of shock via corneal electrodes relative to control; assay type: functional
# Rattus norvegicus [26] = assay: Anticonvulsant activity in Sprague-Dawley rat assessed as protection against maximal electroshock-induced convulsion at 1 mg/kg, po administered 60 mins prior to application of shock via corneal electrodes relative to control; assay type: functional
# Rattus norvegicus [27] = assay: Anticonvulsant activity in Sprague-Dawley rat assessed as protection against maximal electroshock-induced convulsion at 3 mg/kg, po administered 60 mins prior to application of shock via corneal electrodes relative to control; assay type: functional
# [28] = Fraction unbound in rat brain by equilibrium dialysis method; assay type: ADME, tissue-based
# [29] = Fraction unbound in rat plasma by equilibrium dialysis method; assay type: ADME, cell-free
# Chain of Voltage-gated potassium channel, IKs; KCNQ1(Kv7.1)/KCNE1(MinK) (Homo sapiens, UniProt P51787+P15382) (P51787 whole entry): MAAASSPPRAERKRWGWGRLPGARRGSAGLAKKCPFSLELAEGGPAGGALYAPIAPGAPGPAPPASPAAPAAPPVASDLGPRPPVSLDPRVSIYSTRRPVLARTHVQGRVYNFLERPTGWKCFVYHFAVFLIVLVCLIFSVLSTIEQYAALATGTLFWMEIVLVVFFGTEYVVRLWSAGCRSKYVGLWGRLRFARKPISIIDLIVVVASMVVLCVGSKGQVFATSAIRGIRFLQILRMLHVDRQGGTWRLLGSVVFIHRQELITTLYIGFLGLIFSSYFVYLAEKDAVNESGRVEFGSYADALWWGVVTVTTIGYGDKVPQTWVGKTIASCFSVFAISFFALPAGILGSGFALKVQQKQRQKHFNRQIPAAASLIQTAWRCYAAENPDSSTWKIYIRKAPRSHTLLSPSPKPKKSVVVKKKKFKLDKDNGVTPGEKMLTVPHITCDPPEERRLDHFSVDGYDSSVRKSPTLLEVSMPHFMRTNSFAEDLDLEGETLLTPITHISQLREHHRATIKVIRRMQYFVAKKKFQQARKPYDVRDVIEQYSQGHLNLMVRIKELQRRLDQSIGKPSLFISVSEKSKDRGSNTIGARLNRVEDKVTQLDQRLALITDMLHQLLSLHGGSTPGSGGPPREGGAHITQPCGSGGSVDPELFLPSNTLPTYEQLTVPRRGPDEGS
# Chain of Voltage-gated potassium channel, IKs; KCNQ1(Kv7.1)/KCNE1(MinK) (Homo sapiens, UniProt P15382+P51787) (P51787 whole entry): as the sequence (P51787 whole entry) above
# Chain of Voltage-gated potassium channel, KQT; KCNQ2(Kv7.2)/KCNQ3(Kv7.3) (O43526 whole entry): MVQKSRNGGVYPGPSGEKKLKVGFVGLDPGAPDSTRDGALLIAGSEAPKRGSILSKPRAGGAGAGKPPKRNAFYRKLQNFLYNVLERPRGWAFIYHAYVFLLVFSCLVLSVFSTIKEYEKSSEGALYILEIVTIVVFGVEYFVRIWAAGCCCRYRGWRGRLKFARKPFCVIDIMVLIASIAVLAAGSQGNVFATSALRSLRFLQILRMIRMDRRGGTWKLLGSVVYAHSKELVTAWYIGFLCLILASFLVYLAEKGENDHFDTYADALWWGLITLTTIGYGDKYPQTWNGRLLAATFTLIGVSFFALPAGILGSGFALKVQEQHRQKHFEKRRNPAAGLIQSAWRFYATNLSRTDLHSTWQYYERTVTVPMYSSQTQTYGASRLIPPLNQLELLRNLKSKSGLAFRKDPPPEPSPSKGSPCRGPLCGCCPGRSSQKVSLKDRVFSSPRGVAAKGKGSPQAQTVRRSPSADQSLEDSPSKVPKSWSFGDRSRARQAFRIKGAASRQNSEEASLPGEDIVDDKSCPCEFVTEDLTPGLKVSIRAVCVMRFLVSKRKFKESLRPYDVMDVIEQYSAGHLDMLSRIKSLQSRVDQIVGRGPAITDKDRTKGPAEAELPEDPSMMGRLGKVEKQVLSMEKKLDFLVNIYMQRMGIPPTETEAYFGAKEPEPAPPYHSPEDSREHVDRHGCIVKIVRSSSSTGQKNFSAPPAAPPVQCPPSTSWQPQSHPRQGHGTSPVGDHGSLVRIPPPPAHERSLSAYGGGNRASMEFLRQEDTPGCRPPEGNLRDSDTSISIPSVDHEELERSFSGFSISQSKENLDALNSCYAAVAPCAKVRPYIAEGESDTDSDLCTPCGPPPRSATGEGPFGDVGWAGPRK
# Chain of Voltage-gated potassium channel, KQT; KCNQ2(Kv7.2)/KCNQ3(Kv7.3) (O43525 whole entry): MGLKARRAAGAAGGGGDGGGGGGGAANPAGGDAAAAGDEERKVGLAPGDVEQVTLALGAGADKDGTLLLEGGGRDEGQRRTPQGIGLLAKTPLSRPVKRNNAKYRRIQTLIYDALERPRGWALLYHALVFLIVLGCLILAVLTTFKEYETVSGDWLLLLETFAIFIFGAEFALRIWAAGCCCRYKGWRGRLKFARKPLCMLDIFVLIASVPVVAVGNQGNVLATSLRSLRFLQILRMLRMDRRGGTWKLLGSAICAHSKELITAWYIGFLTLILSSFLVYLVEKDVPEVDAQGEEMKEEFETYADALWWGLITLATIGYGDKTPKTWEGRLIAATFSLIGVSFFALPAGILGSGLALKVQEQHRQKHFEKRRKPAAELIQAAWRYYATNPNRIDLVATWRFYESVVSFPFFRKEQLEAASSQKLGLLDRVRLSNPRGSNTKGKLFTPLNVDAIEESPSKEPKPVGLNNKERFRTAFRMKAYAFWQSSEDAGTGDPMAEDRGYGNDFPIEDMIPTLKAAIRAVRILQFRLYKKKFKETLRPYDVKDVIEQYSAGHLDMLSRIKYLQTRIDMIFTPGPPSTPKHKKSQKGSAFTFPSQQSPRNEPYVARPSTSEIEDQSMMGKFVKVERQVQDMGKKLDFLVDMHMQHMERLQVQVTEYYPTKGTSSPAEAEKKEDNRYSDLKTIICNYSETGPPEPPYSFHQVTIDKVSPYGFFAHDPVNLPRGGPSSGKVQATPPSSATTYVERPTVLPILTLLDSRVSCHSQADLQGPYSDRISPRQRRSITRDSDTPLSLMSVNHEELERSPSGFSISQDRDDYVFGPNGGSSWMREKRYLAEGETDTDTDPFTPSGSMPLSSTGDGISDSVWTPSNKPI
smiles,measurement,setting,value
COc1nc(N2CCC(OC)CC2)nc(OC)c1NC(=O)CC(C)(C)C,max activation,[1],147%
same,EC50,[2],334 nM
same,Activity,[3],265%
same,EC50,[4],> 100000 nM
same,EC50,[5],294 nM
same,Activity,[6],246%
same,Activity,[7],84%
same,Activity,[8],237%
same,Activity,[9],161%
same,Ratio,MDCK,1.25
same,Cp(f),Plasma [10],151 nM
same,Drug uptake(free),Brain [11],90 nM
same,Drug uptake(free),Brain [12],125 nM
same,Drug uptake(free),Brain [13],167 nM
same,Ratio,[14],0.57
same,Cp(f),Plasma [15],15 nM
same,Cp(f),Plasma [16],109 nM
same,Cp(f),Plasma [17],225 nM
same,Cp(f),Plasma [18],572 nM
same,Drug uptake(free),Brain [19],43 nM
same,Drug uptake(free),Brain [20],83 nM
same,Ratio,[21],0.42
same,Ratio,[22],0.39
same,Ratio,[23],0.48
same,Activity,Rattus norvegicus [24],100%
same,Activity,Rattus norvegicus [25],100%
same,Activity,Rattus norvegicus [26],0%
same,Activity,Rattus norvegicus [27],88%
same,fraction unbound,[28],0.13
same,fraction unbound,[29],0.184
